Values quoted from earlier work as cited in patent US7189385B2, “Tooth whitening compositions” (Discus Dental Impressions, Inc., priority 1997, dated 2007).

Settings: listed as GRAS, 21 CFR 184.1901

CC(=O)OCC(COC(C)=O)OC(C)=O [Glyceryl triacetate]
toxicity: extremely low order of toxicity
